This passage reports % of inhibition, % of control and pXC50 results from ChEMBL document CHEMBL5465560, “Selectivity Literature for EUbOPEN Chemogenomic Library” (2024).

Test [1] deals with T1, Inhibitor of nuclear factor kappa-B kinase subunit alpha (Homo sapiens) (UniProt O15111).
T1 sequence (whole entry): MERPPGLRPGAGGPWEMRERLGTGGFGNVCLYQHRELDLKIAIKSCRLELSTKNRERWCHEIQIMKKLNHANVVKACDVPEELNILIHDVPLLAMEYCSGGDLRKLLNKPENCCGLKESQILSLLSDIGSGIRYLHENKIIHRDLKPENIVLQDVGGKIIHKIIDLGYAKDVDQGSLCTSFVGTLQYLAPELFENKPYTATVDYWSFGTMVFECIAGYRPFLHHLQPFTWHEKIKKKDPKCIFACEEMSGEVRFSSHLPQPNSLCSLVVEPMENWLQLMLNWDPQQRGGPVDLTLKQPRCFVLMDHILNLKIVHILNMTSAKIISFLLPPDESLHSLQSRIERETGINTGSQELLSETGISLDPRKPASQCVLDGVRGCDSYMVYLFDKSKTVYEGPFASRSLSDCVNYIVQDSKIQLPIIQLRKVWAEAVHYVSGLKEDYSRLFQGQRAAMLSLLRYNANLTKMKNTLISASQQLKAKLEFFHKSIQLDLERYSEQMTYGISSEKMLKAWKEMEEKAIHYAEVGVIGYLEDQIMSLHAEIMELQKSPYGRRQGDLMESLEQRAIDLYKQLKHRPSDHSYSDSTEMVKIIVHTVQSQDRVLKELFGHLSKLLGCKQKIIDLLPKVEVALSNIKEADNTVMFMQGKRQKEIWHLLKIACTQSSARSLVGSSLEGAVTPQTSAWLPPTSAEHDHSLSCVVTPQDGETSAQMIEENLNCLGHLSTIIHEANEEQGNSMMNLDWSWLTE
Description: Selectivity interaction (Adapta Assay) EUB0001632a CHUK. The following applies: at 10 µM.

Test [2] deals with MAP kinase-interacting serine/threonine-protein kinase 1 (Homo sapiens) (UniProt Q9BUB5). Nature of the test: Selectivity interaction (Ambit KINOMEscan and KiNATiv profiling in Jurkat cells) EUB0000090b MKNK1. To be noted: at 1 µM. It is filed as cell-based.
MAP kinase-interacting serine/threonine-protein kinase 1 (Homo sapiens), sequence (Q9BUB5 whole entry, looked up): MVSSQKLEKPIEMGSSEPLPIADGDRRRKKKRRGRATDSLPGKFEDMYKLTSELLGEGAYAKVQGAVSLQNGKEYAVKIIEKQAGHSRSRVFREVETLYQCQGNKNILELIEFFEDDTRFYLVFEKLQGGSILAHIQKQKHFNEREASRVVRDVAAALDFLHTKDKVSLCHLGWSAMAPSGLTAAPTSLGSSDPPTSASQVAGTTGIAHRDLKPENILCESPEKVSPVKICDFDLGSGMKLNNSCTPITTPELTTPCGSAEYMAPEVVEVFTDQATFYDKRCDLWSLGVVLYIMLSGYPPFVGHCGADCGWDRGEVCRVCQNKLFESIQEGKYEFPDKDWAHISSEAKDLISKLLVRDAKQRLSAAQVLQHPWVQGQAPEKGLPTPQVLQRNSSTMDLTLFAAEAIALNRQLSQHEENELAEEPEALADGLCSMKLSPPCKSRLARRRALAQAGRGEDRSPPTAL
The target in test [3] is T2, 5-hydroxytryptamine receptor 3A (Homo sapiens) (UniProt P46098).
T2 sequence (whole entry): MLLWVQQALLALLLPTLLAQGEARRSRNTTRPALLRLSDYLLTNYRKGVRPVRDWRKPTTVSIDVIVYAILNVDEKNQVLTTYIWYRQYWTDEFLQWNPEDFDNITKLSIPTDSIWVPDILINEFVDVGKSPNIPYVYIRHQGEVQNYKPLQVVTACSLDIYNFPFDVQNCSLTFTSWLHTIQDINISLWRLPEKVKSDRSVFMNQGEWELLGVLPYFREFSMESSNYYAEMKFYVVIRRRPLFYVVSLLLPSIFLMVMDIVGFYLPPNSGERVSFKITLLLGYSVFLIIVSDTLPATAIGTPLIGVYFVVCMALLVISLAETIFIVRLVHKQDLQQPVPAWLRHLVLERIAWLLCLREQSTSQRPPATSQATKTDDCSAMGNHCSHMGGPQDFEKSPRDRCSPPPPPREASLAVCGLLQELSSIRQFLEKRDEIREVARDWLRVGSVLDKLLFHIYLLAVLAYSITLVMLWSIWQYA
Description: Selectivity interaction (Panel of kinases, GPCRs, ion channels and transporters (enzymatic assay)) EUB0000266bCl HTR3A.

Test [4] deals with T3, Interleukin-1 receptor-associated kinase 3 (Homo sapiens) (UniProt Q9Y616).
T3 sequence (whole entry): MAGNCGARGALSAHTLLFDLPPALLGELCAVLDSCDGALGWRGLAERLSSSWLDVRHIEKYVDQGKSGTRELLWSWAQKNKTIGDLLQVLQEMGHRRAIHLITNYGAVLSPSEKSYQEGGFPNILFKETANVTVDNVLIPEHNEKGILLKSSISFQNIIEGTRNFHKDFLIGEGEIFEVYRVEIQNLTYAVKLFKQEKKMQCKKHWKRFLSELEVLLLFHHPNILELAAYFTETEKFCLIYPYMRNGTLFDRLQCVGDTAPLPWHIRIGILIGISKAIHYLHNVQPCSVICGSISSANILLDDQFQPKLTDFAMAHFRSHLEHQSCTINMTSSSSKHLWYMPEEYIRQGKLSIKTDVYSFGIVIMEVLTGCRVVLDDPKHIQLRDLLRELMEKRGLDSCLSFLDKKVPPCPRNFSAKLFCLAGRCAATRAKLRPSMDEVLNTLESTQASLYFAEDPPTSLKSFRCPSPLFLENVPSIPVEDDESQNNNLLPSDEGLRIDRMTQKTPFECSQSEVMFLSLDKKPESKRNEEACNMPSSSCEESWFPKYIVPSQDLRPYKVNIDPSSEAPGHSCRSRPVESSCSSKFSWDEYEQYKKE
Nature of the test: Selectivity interaction (ActivX KiNativ screen (kinase selectivity in THP-1 cell lysates)) EUB0000639a IRAK3. The class given is subcellular. To be noted: lysate.

Test [5] has as its target Platelet-derived growth factor receptor beta (Homo sapiens, UniProt P09619). Description: Selectivity interaction (KinomeScan (DiscoverX)) EUB0000695a PDGFRB. The following applies: at 100 nM.
The target in test [6] is Mitogen-activated protein kinase 9 (Homo sapiens, UniProt P45984). Description: Selectivity interaction (Upstate Kinase Profiler service (Millipore)) EUB0000056c MAPK9. The following applies: at 1 µM.
Mitogen-activated protein kinase 9, sequence (P45984 whole entry, looked up): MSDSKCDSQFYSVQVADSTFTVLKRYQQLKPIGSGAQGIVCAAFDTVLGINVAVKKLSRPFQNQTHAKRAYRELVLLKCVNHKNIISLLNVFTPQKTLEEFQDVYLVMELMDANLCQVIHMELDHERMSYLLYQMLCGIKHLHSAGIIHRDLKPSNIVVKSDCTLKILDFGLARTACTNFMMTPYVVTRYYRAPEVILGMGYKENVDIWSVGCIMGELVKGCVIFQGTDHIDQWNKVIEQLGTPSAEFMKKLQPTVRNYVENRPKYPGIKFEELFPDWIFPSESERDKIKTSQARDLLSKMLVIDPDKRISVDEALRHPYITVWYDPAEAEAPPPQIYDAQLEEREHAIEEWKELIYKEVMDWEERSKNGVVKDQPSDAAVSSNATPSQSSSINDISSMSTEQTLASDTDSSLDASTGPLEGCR

Platelet-derived growth factor receptor beta, sequence (P09619 whole entry): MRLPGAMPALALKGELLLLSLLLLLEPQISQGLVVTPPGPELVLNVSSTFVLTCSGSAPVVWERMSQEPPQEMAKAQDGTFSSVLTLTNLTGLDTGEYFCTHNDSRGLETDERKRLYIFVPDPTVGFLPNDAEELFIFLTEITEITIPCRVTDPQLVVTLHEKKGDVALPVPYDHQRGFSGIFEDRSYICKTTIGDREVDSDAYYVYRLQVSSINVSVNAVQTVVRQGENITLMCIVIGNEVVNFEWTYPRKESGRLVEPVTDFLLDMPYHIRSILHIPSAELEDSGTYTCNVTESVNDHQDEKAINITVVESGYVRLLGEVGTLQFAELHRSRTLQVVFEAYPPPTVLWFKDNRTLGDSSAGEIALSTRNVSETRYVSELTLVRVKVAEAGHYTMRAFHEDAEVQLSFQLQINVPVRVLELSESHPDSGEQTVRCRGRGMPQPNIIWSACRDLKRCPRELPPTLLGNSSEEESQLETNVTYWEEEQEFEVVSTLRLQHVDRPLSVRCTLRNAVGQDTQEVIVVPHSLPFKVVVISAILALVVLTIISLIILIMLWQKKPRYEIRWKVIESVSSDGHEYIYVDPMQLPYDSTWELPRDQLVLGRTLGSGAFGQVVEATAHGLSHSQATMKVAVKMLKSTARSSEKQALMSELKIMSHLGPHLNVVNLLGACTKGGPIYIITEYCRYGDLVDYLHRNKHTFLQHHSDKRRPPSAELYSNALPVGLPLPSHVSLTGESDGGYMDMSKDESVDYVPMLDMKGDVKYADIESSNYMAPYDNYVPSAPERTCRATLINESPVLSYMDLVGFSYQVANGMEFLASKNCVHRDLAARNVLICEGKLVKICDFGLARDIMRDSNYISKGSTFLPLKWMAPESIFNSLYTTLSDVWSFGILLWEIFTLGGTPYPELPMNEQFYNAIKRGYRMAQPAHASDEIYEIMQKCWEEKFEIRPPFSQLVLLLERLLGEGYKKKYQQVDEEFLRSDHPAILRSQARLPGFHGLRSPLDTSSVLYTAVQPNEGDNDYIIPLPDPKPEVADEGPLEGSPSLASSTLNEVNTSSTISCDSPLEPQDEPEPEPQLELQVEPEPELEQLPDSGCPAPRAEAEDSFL

With `Cn1cc(-n2cnc3c(NCc4nc5cc(Cl)c(Cl)cc5[nH]4)nc(N4CCOCC4)nc32)cn1`, the % of inhibition in test [1] was 13.7%. As to `CN(C)C/C=C/C(=O)Nc1ccc(C(=O)N2CCCC(Nc3ncc(Cl)c(-c4c[nH]c5ccccc45)n3)C2)cc1` (stereo not given), the % of control in test [2] was 100%.

In test [3], `CCn1c(-c2nc3cc(C(=O)N4CCCC(N)C4)ccc3n2C)cc2ccccc21` (stereo not given) came in with a pXC50 of under 4.3 M.

For `CC[C@@H]1[C@H](F)C(=O)N[C@@H]1COc1nccc2cc(C(N)=O)c(OC)cc12` [ZIMLOVISERTIB], the % of inhibition in test [4] (at 0.01 µM) was -3.6%; in test [4] (at 0.04 µM), 31.1%; in test [4] (at 0.2 µM), 72.5%; in test [4] (at 1 µM) it was 89.6%; in test [4] (at 5 µM), over 98%. Take `Cc1cc(F)c(C(=O)Nc2cccc(-c3nncn3C(C)C)n2)cc1-n1cnc(C2CC2)c1`: the % of control in test [5] came out at 90%. As to `Cc1ccc(-c2ccc3c(ccc4sc5c(c43)NC[C@@H](C)NC5=O)n2)cn1`, the % of inhibition in test [6] was -12%.
